This note sets out measurements from patent US10105331B2, “Substituted aromatic compounds and pharmaceutical compositions for the prevention and treatment of diabetes” (PROMETIC PHARMA SMT LIMITED, priority 2014, dated 2018).

The subject of data set [1] is uninephrectomized db/db mice. Description: Diabetic mouse (db/db) model, uninephrectomized: blood glucose, insulin, glucose/insulin ratio, islet insulin staining. The format is in vivo. The settings on record: for blood glucose level: 105 days. As for the experimental part: (§1) Male Lepr db (db/db) and age- and sex-matched control mice with the same genetic background (C57BL/6) were used. Animals were randomized using blood sugar measurement (5-hours starved) at week 6 and uninephrectomy (removal of right kidney) was performed. Sham animals (C57BL/6) underwent exposition of the right kidney. Animals that underwent the sham operation were given vehicle (saline) and were used as negative controls. C57BL/6 mice that were uninephrectomized were given vehicle and were used as positive controls. Db/db mice were treated with oral administration of compound I at 10 and 50 mg/kg per day for 105 days. Serum glucose was measured every two to four weeks.

Data set [2] concerns uninephrectomized db/db mice. Description: Blood triglycerides level in serum of uninephrectomized db/db mice. The class given is in vivo. The settings on record: 10 or 50 mg/kg. The procedure: as §1
It is known that blood triglycerides is often associated with diabetes. High triglyceride levels in the blood tend to coexist with low levels of HDL (“good”) cholesterol, contributing to a condition called diabetic dyslipidemia. It is also known that a combination of high triglycerides, low HDL and central obesity are the hallmarks of the metabolic syndrome, which occurs in a majority people with type 2 diabetes.

For a further data set, the system named is β-TC-6 cells. Description: Glucose-induced insulin secretion by β-TC-6 cells (insulin ELISA of supernatants). The settings on record: for % Control (insulin secretion, individual values) / Average % Control (insulin secretion): β-TC-6 cells; for Insulin: glucose-induced insulin secretion by β-TC-6 cells, stimulation of 11 mM glucose, control 53. The format is cell-based. As for the experimental part:
β-TC-6 cells where used to determine if compounds according to the present invention were able to induce the production of insulin with or without stimulation with glucose. Briefly, β-TC-6 cells (200,000 cells/ml) were incubated in DMEM media and 15% heat inactivated serum in presence of absence of glucose (0.8M) with/without Compound I for 30 minutes and further incubated for 2 hours with a solution of Krebs containing 2.5, 11 and 25 mM glucose. Supernatants were collected and used for the detection of insulin (ELISA) performed as recommended by the supplier.

Where [3] appears, read: 50 mg/kg per day oral, NX db/db mice.
Where [4] appears, read: uninephrectomized db/db mice, dose not stated in legend.
[5] abbreviates: glucose 11 mM, Compound I 40 μM.
The mark [6] stands for this setting: glucose 11 mM, Compound I 80 μM.

Several values for one entry are separate records, joined by “and”; a condition that tells them apart may be missing. Equal entries are not always repeated.

As usually defined, the melting point is the temperature of the solid-liquid transition. On to `CCCCCc1cc(CCCCC)cc(CC(=O)[O-])c1.[Na+]` [Compound I, Sodium 2-[3,5-Dipentylphenyl]acetate], for which the melting point was 225 to 230 °C. Also, in data set [1] (10 mg/kg per day oral, compared to NX db/db), the blood glucose level entry was “reduces blood glucose compare to NX db/db but stay stable over time”. The insulin level entry in data set [1] (10 mg/kg per day oral, NX db/db mice) is “keeps a high insulin level (stabilization compare to Day 0)”. Also, in data set [1] (setting [3]), the blood glucose level result is recorded as “induces a significant decrease in blood glucose to a normal level” and the insulin level entry is given as “reduces the insulin level close to a normal level”. The “histoimmunostaining of insulin in the pancreatic islets” value in data set [1] (both concentrations (10 or 50 mg/kg), db/db Nx mice) is recorded as “reverses the loss of insulin detection”. Also, in data set [1] (day 33, uninephrectomized db/db mice), the “glucose/insulin ratio (insulin resistance)” value is “reduces the glucose/insulin ratio”. Also, in data set [1] (day 105, uninephrectomized db/db mice), the “glucose/insulin ratio (insulin resistance)” value is recorded as “reduces the glucose/insulin ratio”. In data set [1] (setting [4]), the “blood glucose level (FIG. 1 legend)” value is reported as “reduces blood glucose level down to normal level” and the “insulin secretion (FIG. 2 legend)” value was “reverses the fall of insulin secretion”. Besides, the “blood triglyceride level in serum” value in data set [2] is “reduced the blood triglyceride level”. Further, in the data set on β-TC-6 cells (setting [5]), the “% Control (insulin secretion, individual values)” value is 195.41 % Control and 187.16 % Control and 135.78 % Control and 149.35 % Control and 151.88 % Control and 143.13 % Control; the “Average % Control (insulin secretion)” value came to 160.45 % Control. Further, in the data set with β-TC-6 cells (setting [6]), the “% Control (insulin secretion, individual values)” value was 192.66 % Control and 174.31 % Control and 203.67 % Control and 145.51 % Control and 129.29 % Control and 200.78 % Control; the “Average % Control (insulin secretion)” value stood at 174.37 % Control. The compound further gave an Insulin in the data set with β-TC-6 cells of 76 ng/mL. In the data set with β-TC-6 cells (no glucose, Compound I 40 μM), the “% Control (insulin secretion, individual values)” value is 53.76 % Control and 86.02 % Control and 47.31 % Control and 155.22 % Control and 135.63 % Control and 130.81 % Control; the “Average % Control (insulin secretion)” value is 101.46 % Control. Moreover, in the data set on β-TC-6 cells (no glucose, Compound I 80 μM), the “% Control (insulin secretion, individual values)” value was 79.57 % Control and 38.71 % Control and 70.97 % Control and 123.28 % Control and 114.63 % Control and 177.33 % Control; the “Average % Control (insulin secretion)” value is reported as 100.75 % Control. The “glucose-induced insulin production in β-TC-6 cells” value with β-TC-6 cells (with or without glucose) was “increased with Compound I in presence of glucose only”.

Turning to `CCCCCCc1cc(CCCCCC)cc(CC(=O)[O-])c1.[Na+]` [Compound II, Sodium Salt of 2-(3,5-Dihexylphenyl)acetic acid], the Insulin in the data set with β-TC-6 cells worked out at 123 ng/mL.

Regarding `CCCCCc1cc(CCCCC)c(O)c(CC(=O)[O-])c1.[Na+]` [Compound III, Sodium Salt of 2-(2-Hydroxy-3,5-dipentylphenyl)acetic acid], the Insulin in the data set with β-TC-6 cells amounted to 109 ng/mL.

As to `CCCCCCc1cc(CCCCCC)c(O)c(CC(=O)[O-])c1.[Na+]` [Compound IV, Sodium Salt of 2-(3,5-Dihexyl-2-hydroxyphenyl)acetic acid], the Insulin in the data set on β-TC-6 cells worked out at 147 ng/mL.

`CCCCCc1cc(CCCCC)c(Cc2ccccc2)c(CC(=O)[O-])c1.[Na+]` [Compound IX, Sodium Salt of 2-(2-Benzyl-3,5-dipentylphenyl)acetic Acid]: the Insulin in the data set on β-TC-6 cells was 110 ng/mL.

In the data set with β-TC-6 cells, `CCCCCc1cc(CC(=O)[O-])cc(CCCCC)c1O.[Na+]` [Compound V, Sodium Salt of 2-(4-Hydroxy-3,5-dipentylphenyl)acetic acid] displayed an Insulin of 59 ng/mL.

In turn, `CCCCCCc1cc(CC(=O)[O-])cc(CCCCCC)c1O.[Na+]` [Compound VI, Sodium Salt of 2-(3,5-Dihexyl-4-hydroxyphenyl)acetic acid] had an Insulin in the data set on β-TC-6 cells of 67 ng/mL.

For `CCCCCc1cc(CC(=O)[O-])cc(CCCCC)c1F.[Na+]` [Compound VIII, Sodium Salt of 2-(4-Fluoro-3,5-dipentylphenyl)acetic acid], in the data set with β-TC-6 cells, the Insulin was 64 ng/mL.

`CCC/C=C/c1cc(/C=C/CCC)cc(CC(=O)[O-])c1.[Na+]` [Compound X, Sodium 2-[3,5-Di[(E)-Pent-1-enyl]phenyl]acetate] came in with an Insulin in the data set on β-TC-6 cells of 102 ng/mL.

Turning to `CCCCCc1cc(CCCCC)cc(CCC(=O)[O-])c1.[Na+]` [Compound XI, Sodium 3-[3,5-Dipentylphenyl]propanoate], in the data set with β-TC-6 cells, the Insulin came to 89 ng/mL.

In turn, `CCCC/C=C/c1cc(/C=C/CCCC)cc(CC(=O)[O-])c1.[Na+]` [Compound XII, Sodium Salt of 2-(3,5-Di((E)-hex-1-enyl)phenyl)acetic acid] displayed an Insulin in the data set on β-TC-6 cells of 70 ng/mL.
